Results on 16 compounds are retold here after patent US20240325327A1, “METHOD FOR ATTENUATING NEUROINFLAMMATION, AMYLOIDOPATHY AND TAUOPATHY” (Trustees of Dartmouth College, priority 2023, published 2024).

In general, IC50 refers to the concentration that inhibits the measured activity by half. By EC50 is commonly meant the concentration giving half of the maximal effect.

Assay [1] concerns the target T1, ACAT2 (Homo sapiens, UniProt O75908).
T1 sequence (O75908 1-522): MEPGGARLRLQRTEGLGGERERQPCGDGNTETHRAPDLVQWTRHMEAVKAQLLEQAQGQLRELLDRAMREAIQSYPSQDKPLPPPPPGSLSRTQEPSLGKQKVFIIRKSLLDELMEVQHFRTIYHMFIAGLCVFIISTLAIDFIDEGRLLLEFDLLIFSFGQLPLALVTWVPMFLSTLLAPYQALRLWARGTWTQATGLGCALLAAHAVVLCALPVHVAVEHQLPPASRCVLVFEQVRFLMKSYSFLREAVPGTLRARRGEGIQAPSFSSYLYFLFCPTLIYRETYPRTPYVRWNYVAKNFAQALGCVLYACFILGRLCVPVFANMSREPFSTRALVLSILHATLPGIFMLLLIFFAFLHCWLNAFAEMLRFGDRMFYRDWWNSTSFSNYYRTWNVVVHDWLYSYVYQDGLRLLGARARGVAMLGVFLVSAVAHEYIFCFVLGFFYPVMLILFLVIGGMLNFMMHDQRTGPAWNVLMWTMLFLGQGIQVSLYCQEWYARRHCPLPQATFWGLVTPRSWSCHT
The arrangement: IC50 ACAT2. Particulars: cited from earlier work.

Assay [2] concerns N9 microglial cells. Briefly: inflammatory responses to LPS in N9 microglial cells (qPCR, IκB-α western blot). The format is cell-based, mouse. The following applies: 0.5 μM for 4 hours, then 10, 100 or 1000 ng/mL LPS. As for the experimental part: Cells were seeded at 1×10^5/well onto 12-well plates in RPMI-1640 with 10% bovine calf serum. […] Six hours later, mRNA was extracted, and qPCR was performed to monitor pro-inflammatory (FIG. 5A) or anti-inflammatory (FIG. 5B) gene expression. […] Thirty minutes later, proteins were extracted for western blot analysis for total IκB-α, and for phosphorylated IκB-α (p-IκB-α). *P<0.05; ** P<0.01.
It has now been shown that, in microglia, genetic inactivation of Acat1 suppresses certain pro-inflammatory response genes (FIG. 4A and FIG. 4C, e.g., IL-1β, iNOS, MCP1, Cxc19, Cxc110 and IL-6) and induces certain anti-inflammatory response genes (FIG. 4B and FIG. 4D, e.g., YM1) in the hippocampus (FIG. 4A and FIG. 4B) and cortex (FIG. 4C and FIG. 4D).

Assay [3] relates to IL-4Rα. Briefly: IL-4Rα expression in N9 microglia (immunoblot). The format is cell-based, mouse. As for the experimental part: Cells were harvested for immunoblot analysis for IL-4Rα. Vinculin was the loading control. Data expressed as mean+/−SEM, * p<0.05, ** p<0.01.
(§1) IL-4Rα expression was determined by convention methods. 25 μg/mL cholesterol equals 38 μg/mL total myelin debris protein. Data are expressed as mean±SEM. *P<0.05; **P<0.01.
In microglia, various cholesterol-rich agents including myelin debris and damaged cell membranes enter the cells. […] In addition, the effects of ACAT1 blockade were tested in N9 and the human microglia-like cell line HMC3, which both express normal TREM-2 receptors.
Background: In western blotting, separated proteins are transferred to a membrane and probed.

The test system of assay [4] is IL-4Rα. Put plainly: IL-4Rα expression in HMC3 microglia (western blot). The format is cell-based, human. The following applies: for IL-4Rα protein content: human myelin debris-treated HMC3 cells, 48 hours co-incubation. As for the experimental part:
as §1
[…] Protein was isolated and analyzed by western blot analysis. Vinculin was the loading control. […] Data are expressed as mean±SEM. *P<0.05; **P<0.01.
(§2) Subsequently, myelin debris from human brains was prepared and it was observed that the cholesterol/protein ratio, as well as the protein composition between mouse myelin debris and human myelin debris, were very similar.

Assay [5] deals with ABCA1. Put plainly: ABCA1 protein content in human myelin debris-treated HMC3 cells. The format is cell-based. The following applies: human myelin debris at 25 μg/mL cholesterol, 0.5 μM inhibitor, 24 hours. As for the experimental part:
Afterward, cells were harvested for western blot analyses. Lysates of HEK293 cells and lysates of HMC3 cells treated with 10 μM LXR agonist T0901317 for 24 hours were respectively used as negative and positive controls for ABCA1 signals. […] Data are expressed as mean±SEM.
as §2

Assay [6] deals with mouse model for Alzheimer's Disease. The following applies: in vivo; cited from earlier work.
Assay [7] relates to ACAT1. Put plainly: ACAT1 inhibition, literature values. The format is biochemical, human. The following applies: ratio of IC50 values ACAT2/ACAT1. The text has this: Cholesterol is stored as cholesteryl esters. For cholesterol esterification, there are two Acyl-CoA:Cholesterol Acyltransferase (ACAT) genes, SOAT1 and SOAT2, encoding two homologous but distinct enzymes, ACAT1 and ACAT2. Both enzymes use long-chain fatty acyl-CoAs and sterols with 3-beta-OH, including cholesterol and various oxysterols as their substrates. ACAT1 is the major cholesterol storage enzyme in the brain.
Biophys. Res. Comm. […] Here, the ACAT activity was monitored using the ACAT enzyme assay in vitro.

In assay [8] the target is T2, human ACAT1 (Homo sapiens, UniProt P35610).
T2 sequence (P35610 1-550): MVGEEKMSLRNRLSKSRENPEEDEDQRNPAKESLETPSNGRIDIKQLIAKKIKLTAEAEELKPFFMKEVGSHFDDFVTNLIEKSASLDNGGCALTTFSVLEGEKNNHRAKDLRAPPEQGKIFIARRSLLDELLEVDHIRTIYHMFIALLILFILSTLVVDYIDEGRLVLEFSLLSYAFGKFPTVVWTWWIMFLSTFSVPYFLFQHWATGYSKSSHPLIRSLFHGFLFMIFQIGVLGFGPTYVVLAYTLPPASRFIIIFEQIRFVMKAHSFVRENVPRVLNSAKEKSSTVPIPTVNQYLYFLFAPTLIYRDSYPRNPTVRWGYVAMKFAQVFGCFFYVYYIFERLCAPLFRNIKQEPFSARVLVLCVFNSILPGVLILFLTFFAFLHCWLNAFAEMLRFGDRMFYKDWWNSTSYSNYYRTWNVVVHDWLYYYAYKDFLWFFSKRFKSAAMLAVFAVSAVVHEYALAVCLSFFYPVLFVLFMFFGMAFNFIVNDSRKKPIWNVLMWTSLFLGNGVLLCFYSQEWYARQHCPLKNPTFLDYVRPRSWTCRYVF
The following applies: cited from earlier work.

The target in assay [9] is T1, ACAT2. Particulars: at 1 mM; cited from earlier work.
Assay [10] deals with T2, human ACAT1. Put plainly: mixed liposome ACAT1 assay.
Method: In vitro Mixed Liposomal ACAT Activity Assay. […] Lysed cells were collected and aliquoted into pre-chilled tubes containing the liposomal mixture of taurocholate, phosphatidylcholine, and cholesterol. Tubes were vortexed and kept on ice for 5 minutes. Samples were then incubated in a 37° C. shaking water bath with ^3H-oleoyl CoA added for 10 minutes. The assay was stopped by adding CHCl3:MeOH (2:1). Lipids were extracted and analyzed by the same TLC method described herein.

With `CC(C)c1cccc(C(C)C)c1NC(=O)CC(=O)C(Cc1ccccc1)Cc1ccc(O)cc1` (centres unmarked) [Compound 1B], the IC50 in [1] is 1.5 µM. In the case of `CSc1cc(C)nc(SC)c1NC(=O)CN1CCN(CCSc2nc3ccccc3[nH]2)CC1` [K-604], the “inflammatory responses to LPS” value in [2] was “attenuates inflammatory responses to LPS”. Also, the IL-4Rα expression result in assay [3] (N9 cells, 0.5 μM for 4 or 12 hours) is recorded as “increases expression of the receptor IL-4Rα”; in assay [3] (mouse myelin debris-treated N9 cells, 21 hours) it was “upregulates IL-4Rα expression”; in assay [4] (mouse myelin debris-treated HMC3 cells, 21 hours) it was “upregulates IL-4Rα expression”. In assay [4], the IL-4Rα protein content entry is “IL-4Rα protein content increases”. For the same compound, the ABCA1 protein content entry in assay [5] was “increased significantly”. For `CCCCCCCCCCCCS[C@H](C(=O)Nc1cc(C)c(O)c(C)c1C)c1ccccc1` [F12511], the IL-4Rα protein content entry in assay [4] is on record as “IL-4Rα protein content increases”. In addition, the ABCA1 protein content result in assay [5] is “increased significantly”. In addition, the IC50 in assay [1] was 0.11 µM. As for `CCCCCCCC(=O)Nc1cc(-c2ccccc2)nn1-c1ccccc1` [compound 13], the IC50 in [1] was 53 µM. Take `CCCCCCCC(=O)Nc1ccccc1-c1ccccc1` [compound 1]: in assay [1], the IC50 is 230 µM. For `CCCCCCCCCNc1cc(-c2ccccc2)nn1-c1ccccc1` [compound 16], the IC50 in assay [1] was 97 µM.

Regarding `CCCCCCCCC(=O)Nc1ccccc1-c1ccccc1` [compound 2], in assay [1], the IC50 is 414 µM. For the compound `CCCCCCCC[C@H](SCCCCCC)C(=O)Nc1c(SC)cc(C)nc1SC` [CP113,818], in [6], the “amyloidopathy / cognitive deficits in mouse model for AD” value was “reduce amyloidopathy and rescue cognitive deficits”. As to `CCOC(=O)OC(=O)OCC` [diethyl pyrocarbonate], the “selectivity for ACAT1 over ACAT2” value in [7] is listed as 4 fold. Moreover, the concentration for half-maximal inhibition (IC50) was 44 µM in [8] and 170 µM in assay [1]. As for `CCCCCCCCC(=O)Nc1cc(-c2ccccc2)nn1-c1ccccc1` [compound 14], the IC50 in assay [1] was 75 µM. Regarding `CCCC[C@H](C)[C@@H]1CC(=O)N[C@@H](Cc2ccccc2)C(=O)N[C@@H](C)C(=O)N[C@H](CC(C)C)C(=O)O1` [Beauveriolide I], the IC50 in [1] was 20 µM. In the case of Saucerneol B, the IC50 in assay [1] was 124 µM. In the case of `CC(C)c1cccc(C(C)C)c1NC(=O)CC(=O)C(Cc1ccccc1)Cc1ccc(OC(=O)CCCCCCN2CCCCCC2=O)cc1` (centres unmarked) [Compound 1C], the IC50 in [1] is 0.53 µM. As to `COc1ccc([C@@H](O)[C@@H](C)Oc2ccc([C@H]3O[C@H](c4ccc(O[C@H](C)[C@H](O)c5ccc6c(c5)OCO6)c(OC)c4)[C@H](C)[C@H]3C)cc2OC)cc1OC` [manassantin B], the “inhibition of hACAT-2” value in [9] is 32%.

As for `CCCCCCCCCCCCS(=O)(=O)[C@](F)(C(=O)Nc1cc(C)c(O)c(C)c1C)c1ccccc1` [F26], the EC50 in assay [10] was 5.8 nM. Also, in assay [10] (ratio of EC50 values), the “potency relative to F12511 as ACAT1 inhibitor” value is given as approximately 7 times. With `CC(C)c1cc(C(C)C)c(CC(=O)NS(=O)(=O)Oc2c(C(C)C)cccc2C(C)C)c(C(C)C)c1` [CI 1011], the “amyloidopathy / cognitive deficits in mouse model for AD” value in [6] is “reduce amyloidopathy”.
